Earlier results, collected in patent US20110136769A1, “METHOD OF TREATING MEN WITH TE[…] 5ALPHA-REDUCTASE INHIBITOR” (Merck Sharp & Dohme Corp., priority 2007, published 2011).

Key:
[1] = target: T1, 5α-reductase type 1 (Homo sapiens, UniProt P18405); conditions: background statement
T1 construct: Samples of human tissue were pulverized using a freezer mill and homogenized; from tissue; host or cells: human scalp (crude nuclear pellet of homogenate)
T1 sequence (P18405 1-259): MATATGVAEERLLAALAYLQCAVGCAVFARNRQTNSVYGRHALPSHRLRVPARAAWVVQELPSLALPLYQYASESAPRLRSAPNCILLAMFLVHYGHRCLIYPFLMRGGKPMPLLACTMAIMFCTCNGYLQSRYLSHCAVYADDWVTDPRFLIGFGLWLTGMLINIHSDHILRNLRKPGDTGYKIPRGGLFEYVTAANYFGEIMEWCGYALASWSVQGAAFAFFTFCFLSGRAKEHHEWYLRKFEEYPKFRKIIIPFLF

[2] = target: T2, 5α-reductase type 2 (Homo sapiens, UniProt P31213); conditions: background statement
T2 construct: Samples of human tissue were pulverized using a freezer mill and homogenized; from tissue; host or cells: human prostate (crude nuclear pellet of homogenate)
T2 sequence (P31213 1-254): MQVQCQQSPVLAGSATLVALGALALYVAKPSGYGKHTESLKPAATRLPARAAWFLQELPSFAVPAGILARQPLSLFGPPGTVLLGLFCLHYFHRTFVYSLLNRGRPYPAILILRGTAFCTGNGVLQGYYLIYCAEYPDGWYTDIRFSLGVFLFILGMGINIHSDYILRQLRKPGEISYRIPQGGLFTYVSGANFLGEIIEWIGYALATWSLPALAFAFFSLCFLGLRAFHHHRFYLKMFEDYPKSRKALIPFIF

SMILES | inhibition of 5α-reductase type 1 [1] | inhibition of the human type 2 enzyme [2]
C[C@]12C=CC(=O)N[C@@H]1CC[C@@H]1[C@@H]2CC[C@]2(C)[C@@H](C(=O)Nc3cc(C(F)(F)F)ccc3C(F)(F)F)CC[C@@H]12 [dutasteride] | potent inhibitors | potent inhibitors
CC(C)(C)NC(=O)[C@H]1CCC2C3CCC4NC(=O)C=C[C@]4(C)C3CC[C@@]21C (stereo partly drawn) [Finasteride, 17β-(N-tert-butylcarbamoyl)-3-oxo-4-aza-5α-androst-1-en-3-one] |  | potent inhibitor
